Columns and labels:
[1] = target: Nicotinamide phosphoribosyltransferase (Mus musculus) (UniProt Q99KQ4); assay: Activation of N-terminal 6His-tagged mouse NAMPT assessed as increase in intracellular NAD+ level measured for 20 mins by fluorescence based spectrometer analysis relative to control; format: cell-based; conditions: filed as activator
[2] = target: Nicotinamide phosphoribosyltransferase (Mus musculus, UniProt Q99KQ4); assay: Activation of N-terminal 6His-tagged mouse NAMPT measured for 20 mins by fluorescence based spectrometer analysis
Nicotinamide phosphoribosyltransferase (Mus musculus, UniProt Q99KQ4), sequence (Q99KQ4 whole entry): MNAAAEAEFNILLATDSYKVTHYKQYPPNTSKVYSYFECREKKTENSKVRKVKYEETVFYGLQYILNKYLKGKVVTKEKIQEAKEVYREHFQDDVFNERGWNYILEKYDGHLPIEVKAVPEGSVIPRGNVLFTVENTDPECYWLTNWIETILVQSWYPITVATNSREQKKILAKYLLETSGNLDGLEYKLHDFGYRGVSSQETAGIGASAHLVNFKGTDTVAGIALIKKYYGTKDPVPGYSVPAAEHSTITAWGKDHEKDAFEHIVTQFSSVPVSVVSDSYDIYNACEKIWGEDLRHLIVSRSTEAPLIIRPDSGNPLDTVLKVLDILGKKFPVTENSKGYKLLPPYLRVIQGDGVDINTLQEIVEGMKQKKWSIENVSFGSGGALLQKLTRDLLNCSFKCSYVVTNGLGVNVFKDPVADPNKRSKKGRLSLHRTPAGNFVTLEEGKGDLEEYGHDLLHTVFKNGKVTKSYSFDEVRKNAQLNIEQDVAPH

[3] = system: PC-3; assay: Anticancer activity against human PC-3 cells; format: functional, cell-based
[4] = system: HCT-116; assay: Anticancer activity against human HCT-116 cells assessed as reduction in cell growth; format: functional, cell-based
[5] = Anticancer activity against human NYH/VM cells assessed as reduction in cell growth; format: functional, cell-based
[6] = system: HepG2; assay: cells; conditions: Homo sapiens, HepG2, 48 h
[7] = target: T1, Protein cereblon/Nicotinamide phosphoribosyltransferase (Homo sapiens, UniProt P43490+Q96SW2); assay: PROTAC activity at CRBN/NAMPT in human Jurkat cells assessed as induction of intracellular NAMPT degradation incubated for 24 hrs by Western blot analysis; format: cell-based
Target sequence in this assay (P43490 whole entry): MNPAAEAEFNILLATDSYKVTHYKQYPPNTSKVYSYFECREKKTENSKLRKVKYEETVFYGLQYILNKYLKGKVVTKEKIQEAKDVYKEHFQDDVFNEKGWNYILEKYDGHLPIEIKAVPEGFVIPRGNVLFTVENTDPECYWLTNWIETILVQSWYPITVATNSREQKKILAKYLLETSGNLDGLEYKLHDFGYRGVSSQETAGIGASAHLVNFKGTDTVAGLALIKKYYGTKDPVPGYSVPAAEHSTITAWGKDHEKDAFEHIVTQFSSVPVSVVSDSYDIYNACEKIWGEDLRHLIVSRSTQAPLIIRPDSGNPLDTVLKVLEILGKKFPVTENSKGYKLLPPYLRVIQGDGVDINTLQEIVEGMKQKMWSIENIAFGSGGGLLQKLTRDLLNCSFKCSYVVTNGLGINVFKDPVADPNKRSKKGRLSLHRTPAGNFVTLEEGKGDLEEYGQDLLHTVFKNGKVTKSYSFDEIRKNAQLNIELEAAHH
Target sequence in this assay (Q96SW2 whole entry): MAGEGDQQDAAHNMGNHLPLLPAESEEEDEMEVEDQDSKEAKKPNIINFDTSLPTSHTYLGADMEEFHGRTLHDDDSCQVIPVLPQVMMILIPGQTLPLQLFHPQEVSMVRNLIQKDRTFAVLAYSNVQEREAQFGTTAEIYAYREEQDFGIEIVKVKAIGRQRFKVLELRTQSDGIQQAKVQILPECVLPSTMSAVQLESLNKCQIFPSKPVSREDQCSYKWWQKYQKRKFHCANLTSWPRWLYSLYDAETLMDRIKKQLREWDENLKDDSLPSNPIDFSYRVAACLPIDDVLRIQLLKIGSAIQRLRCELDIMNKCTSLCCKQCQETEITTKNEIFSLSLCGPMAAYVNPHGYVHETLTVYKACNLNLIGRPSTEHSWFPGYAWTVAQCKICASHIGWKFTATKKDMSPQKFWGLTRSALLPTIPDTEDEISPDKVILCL

[8] = target: T1, Protein cereblon/Nicotinamide phosphoribosyltransferase; assay: PROTAC activity at CRBN/NAMPT in human Jurkat cells assessed as induction of intracellular NAMPT degradation at 5 uM incubated for 24 hrs by Western blot analysis relative to control; format: cell-based
Target sequence in this assay (P43490 whole entry, looked up): as the sequence (P43490 whole entry) above
Target sequence in this assay (Q96SW2 whole entry, looked up): as the sequence (Q96SW2 whole entry) above

[9] = target: T2, Nicotinamide phosphoribosyltransferase (Homo sapiens, UniProt P43490); assay: Activation of recombinant NAMPT (unknown origin) expressed in Escherichia coli by fluorescence based spectrometer analysis
T2 sequence (P43490 whole entry): as the sequence (P43490 whole entry) above

[10] = target: T2, Nicotinamide phosphoribosyltransferase; assay: Activation of N-terminal His-tagged human NAMPT expressed in Escherichia coli BL 21 (DE3) using NAM and PRPP as substrates incubated for 15 mins in presence of ATP by fluorescence based spectrometer analysis
[11] = target: Cytochrome P450 2C9 (Homo sapiens, UniProt P11712); assay: Inhibition of CYP2C9 (unknown origin); format: ADME
Cytochrome P450 2C9, sequence (P11712 whole entry): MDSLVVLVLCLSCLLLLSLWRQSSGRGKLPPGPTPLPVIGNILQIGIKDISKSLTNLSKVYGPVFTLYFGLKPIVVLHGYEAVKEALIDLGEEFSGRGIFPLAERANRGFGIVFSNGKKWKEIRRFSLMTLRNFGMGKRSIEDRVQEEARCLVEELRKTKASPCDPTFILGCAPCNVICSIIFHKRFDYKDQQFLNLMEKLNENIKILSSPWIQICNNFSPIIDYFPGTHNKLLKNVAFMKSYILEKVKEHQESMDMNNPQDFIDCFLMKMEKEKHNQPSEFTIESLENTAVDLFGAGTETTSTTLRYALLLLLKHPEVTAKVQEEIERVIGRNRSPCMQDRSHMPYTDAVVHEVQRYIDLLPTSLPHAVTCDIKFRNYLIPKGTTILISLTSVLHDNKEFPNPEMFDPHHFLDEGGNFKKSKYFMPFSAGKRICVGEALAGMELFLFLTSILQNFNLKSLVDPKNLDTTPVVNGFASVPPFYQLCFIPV

[12] = target: T2, Nicotinamide phosphoribosyltransferase; assay: Inhibition of NAMPT (unknown origin)
[13] = system: A2780; assay: cells; conditions: Homo sapiens, A2780, 72 h

Nicotinamide phosphoribosyltransferase (Mus musculus), sequence (Q99KQ4 whole entry, looked up): as the sequence (Q99KQ4 whole entry) above

## O=C(NCc1ccc(CO)cc1)Nc1ccc(S(=O)(=O)N2CC3CCC(C2)O3)cc1
[1]
  Emax: 247%
[2]
  EC50: 1490 nM

## N#C/N=C(\NCCCCCCC(=O)N(Cc1ccccc1)OC1CCCCC1)Nc1ccncc1
[3]
  IC50: 0.3 nM
[4]
  IC50: 0.4 nM
[5]
  IC50: 0.02 nM

## Cc1nc2ccccc2n(Cc2ccc(C(=O)NCc3cccnc3)cc2)c1=O
[6]
  IC50: 1690 nM

## O=C(/C=C/c1cccnc1)NCCCCC1CCN(C(=O)c2ccc(N3CCN(CCCCCC#Cc4cccc5c4CN(C4CCC(=O)NC4=O)C5=O)CC3)cc2)CC1 (stereo unspecified)
[7]
  DC50: < 1 nM
[8]
  Emax: 93.3%

## O=C(/C=C/c1cccnc1)NCCCCC1CCN(C(=O)c2ccc(N3CCN(CCCCCCC#Cc4cccc5c4CN(C4CCC(=O)NC4=O)C5=O)CC3)cc2)CC1 (stereo unspecified)
[7]
  DC50: < 1 nM
[8]
  Emax: 92.5%

## O=C1C=C2Cc3cc(O)c(O)cc3C(c3ccccc3O)=C2C=C1O
[9]
  EC50: 3500 nM

## CCN(CC)C(=O)c1noc2cc(NC(=O)NCc3cnco3)ccc12
[10]
  EC50: 180 nM

## O=C(NC[C@@H]1CCOC1)c1ccc(NC(=O)N2Cc3ccccc3C2)cc1
[11]
  IC50: > 20000 nM

## Nc1ccc(/C=C/C(=O)NCc2cc3cc(-c4ccc(C(=O)N5CCC(F)(F)CC5)cc4)cc(-c4ccc(F)cc4)c3o2)cn1 [PADNARSERTIB]
[12]
  IC50: 120 nM

## O=S(=O)(c1ccc(CNc2ccc3cccn3c2)cc1)c1cc(F)cc(F)c1
[13]
  IC50: 360 nM

## CCCn1c(=O)c(-c2ccc(C(=O)NCc3cccnc3)cc2)nc2ccccc21
[6]
  IC50: 1950 nM

— ChEMBL document CHEMBL5550086, “Drug discovery targeting nicotinamide phosphoribosyltransferase (NAMPT): Updated progress and perspectives” (Bioorg Med Chem, 2024)
